Reference: article PMC5855801, “Benzothiophenone Derivatives Targeting Mutant Forms of Estrogen Receptor-α in Hormone-Resistant Breast Cancers” (International Journal of Molecular Sciences, 2018)

Key:
[1] = test system: ERα binding to the pS2 enhancer; assay: Chromatin immunoprecipitation (ChIP) in MCF7 cells; type: cell-based, human; conditions: MCF7, 6 μM, 24 h, 1 nM E2, compared to E2 alone
Protocol: To test this hypothesis, we performed chromatin immunoprecipitation (ChIP) assays in MCF7 cells. The cells were treated for 24 h with vehicle and E2 either alone or in combination with VPC-16606.
E2-deprived MCF7 cells (1 × 10^7 cells per 10 cm plate) were treated for 24 h with DMSO alone, DMSO + E2 or compound + E2. One percent formaldehyde was added for 10 min at room temperature to perform DNA-protein crosslinking and quenched by treatment with 125 mM glycine for 5 min. Cell lysates sonicated with Sonic Dismembrator 550 instrument (Thermo Fisher Scientific, Waltham, MA, USA) to yield DNA fragments of 200–1000 bp in size. Lysates (from 3.3 × 10^6 cells) were immunoprecipitated with […] of anti-ERα antibody or […] of rabbit isotype control IgG (Santa Cruz Biotechnology, Dallas, TX, USA) using the EZ-ChIP chromatin immunoprecipitation kit (Millipore, Billerica, MA, USA). Bound DNA was quantified by qPCR (SYBR Green master mix, Invitrogen, Carlsbad, CA, USA) using the following primer sets: pS2 enhancer, forward 5′-[…]-3′ and reverse 5′-AGGGCGTGACACCAGGAAA-3′; GAPDH promoter, forward 5′-[…]-3′ and reverse 5′-TCGAACAGGAGCAGA GAGCGA-3′. The qPCR results are presented as fold enrichment of PCR amplification over control IgG antibody and normalized based on the total input (no precipitated chromatin). Primers for the GAPDH promoter were used as a negative control.

[2] = test system: ERα-dependent genes pS2, PR, Cyclin D1 and CDC2; assay: qRT-PCR of ERα-dependent genes in MCF7 cells; type: cell-based, human; conditions: MCF7, 24 h, 1 nM E2
Protocol: mRNA levels were analyzed after treatment of MCF7 and TamR3 cells for 24 h with the test compounds as described previously. The fold change in expression of the genes was calculated using the 2^−ΔΔCt method with GAPDH as the internal control.

[3] = test system: pS2, PR, Cyclin D1 and CDC2 proteins; assay: Western blotting in TamR3 cells; type: cell-based, human; conditions: TamR3, 24 h, effect at higher doses
Protocol: Serum-starved MCF7 and TamR3 cells were seeded onto a six-well plate at a density of 6 × 10^5 cells/well and treated the following day with VPC-16606 in the presence of 1 nM E2. One micromolar OHT was used as the positive control. After 24 h, cells were lysed in 1× radioimmunoprecipitation assay (RIPA) buffer. Twenty five micrograms of protein were loaded into SDS-PAGE gels and transferred to PVDF membranes. Membranes were incubated with pS2, PR Cyclin D1 and CDC2 antibodies or control α-actin antibody. Bound antibodies were detected using HRP-conjugated secondary antibodies. Chemiluminescence was detected with an Amersham ECL detection kit (GE Healthcare Life Sciences, Chicago, IL, USA), and bands were visualised using the G:BOX imager (Syngene, Cambridge, UK).

ERα = target: T1, ERα (Homo sapiens, UniProt P03372); assay: Estrogen-responsive luciferase reporter transcriptional assay in T47DKBluc cells; type: cell-based; conditions: 1 nM E2, 24 h, read-out: IC50 against ERα in the luciferase reporter-based transcriptional assay
T1 construct: endogenous in cells; host or cells: T47DKBluc (ATCC CRL-2865)
T1 sequence (P03372 1-595): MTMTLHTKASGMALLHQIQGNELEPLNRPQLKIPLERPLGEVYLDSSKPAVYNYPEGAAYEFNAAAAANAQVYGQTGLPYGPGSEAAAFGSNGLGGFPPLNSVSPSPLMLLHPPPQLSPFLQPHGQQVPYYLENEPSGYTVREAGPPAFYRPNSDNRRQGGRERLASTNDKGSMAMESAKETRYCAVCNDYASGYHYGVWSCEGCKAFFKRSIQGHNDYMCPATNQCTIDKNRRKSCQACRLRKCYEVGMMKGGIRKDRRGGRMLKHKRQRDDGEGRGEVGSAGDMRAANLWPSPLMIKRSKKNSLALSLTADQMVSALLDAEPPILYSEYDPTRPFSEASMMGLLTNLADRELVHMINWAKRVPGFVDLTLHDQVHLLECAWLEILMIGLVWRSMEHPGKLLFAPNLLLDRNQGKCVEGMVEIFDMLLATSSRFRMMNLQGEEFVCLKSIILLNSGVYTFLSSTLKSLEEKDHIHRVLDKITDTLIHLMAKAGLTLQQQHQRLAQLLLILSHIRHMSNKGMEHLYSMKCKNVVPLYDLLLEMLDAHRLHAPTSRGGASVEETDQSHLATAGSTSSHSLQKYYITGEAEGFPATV
Protocol: T47DKBluc cells (ATCC® CRL-2865^TM, Manassa, VA, USA) stably transfected with a 3X-ERE–promoter–luciferase reporter gene construct, pGL2.TATA.Inr.luc.neo [38], were used to measure inhibition of ERα-driven transcriptional activity of the luciferase reporter.
This assay was performed as described previously. Briefly, ERα-positive T47DKBluc cells were grown in phenol red-free RPMI 1640 supplemented with 10% CSS for 5 days. The cells were seeded on 96-well plates (2 × 10^4 cells/well). After 24 h, the cells were treated with test compounds in the presence of 1 nM E2. Twenty four hours post-treatment, the cells were lysed with 50 μL of 1× passive lysis buffer (Promega, Madison, WI, USA). Twenty microliters of the lysate from each treatment were transferred onto a white, 96-well, flat-bottomed plate (Corning Life Sciences, Corelle, NY, USA), and the luminescent signal was measured after adding 50 μL of the luciferase assay reagent (Promega, Madison, WI, USA) on a Tecan M200Pro microplate reader (Tecan, Menedorf, Switzerland). Differences in growth were normalised against total protein concentration, which was measured by the bicinchoninic acid (BCA) assay.

ZR75-1 cells = assay: Presto Blue cell viability assay, ZR75-1; type: cell-based, human; conditions: ZR75-1, 96 h, two-fold dilution starting at 50 µM
Protocol: (§1) The Presto Blue cell viability assay was used to assess the growth inhibitory potential of VPC-16606 on ERα^+ T47D, MCF7, ZR75-1 and TamR3 cells. They were treated for 96 h with a two-fold dilution range of the compound starting at 50 µM.
(§2) Cell viability was determined using the Presto Blue cell viability assay (Thermo Fisher Scientific, Waltham, MA, USA). Cells were seeded in clear bottom black-walled 96-well plates at a density of 5 × 10^3 cells/well in 100 μL of their respective media. On the following day, the cells were treated with test compounds (0.001–22.5 μM) in the presence of 1 nM E2 and incubated at 37 °C. After 96 h, 30 μL of Presto Blue reagent was added and incubated for 10 min at 37 °C. The fluorescent signal from viable cells was measured at 590 nm.

MCF7 cells = assay: Presto Blue cell viability assay, MCF7; type: cell-based, human; conditions: MCF7, 96 h, two-fold dilution starting at 50 µM
Protocol: as §1, §2

With CC(=O)N(/N=C1\Sc2c(C)cccc2C1=O)c1ccccc1Cl [VPC-16606] the “ERα pull down of the promoter of pS2 (ChIP)” value [1] was “significantly reduced”, the “mRNA levels of ERα-dependent genes pS2, PR, Cyclin D1 and CDC2” value [2] was “significantly downregulates” and the “Expression of pS2, PR, Cyclin D1 and CDC2 proteins (Western blot)” value [3] was “decreased expression”. The IC50 (ERα) was 300 nM, the “Cell growth (Presto Blue viability)” value (ZR75-1 cells) was “significantly reduce the growth” and the “Cell growth (Presto Blue viability)” value (MCF7 cells) was “significantly reduce the growth”.
